Reference: patent US20060235063A1, “Method of protecting a soybean plant with flutriafol” (priority 2005, published 2006)

Tests used:
[1] = system: soybean rust; test: Example 2: field trial at Formoso do Araguaia, Brazil, percentage rust coverage on leaves; type: in vivo
Text: A trial in Brazil at Formoso do Araguaia examined the rust control from nine rates of flutriafol applied as a 1.5% granule in a rate range of 4 to 40 kg formulated product per hectare (60 to 600 g flutriafol active ingredient per hectare), three rates of Vincit 2.5% powder seed dressing at […] formulated product per 100 kg seed (2.25 to 3.75 g flutriafol active ingredient per 100 kg seed) and four rates of Vincit 5% SC suspension concentrate seed dressing at 50 to 150 g formulation per 100 kg seed (1.5 to 4.5 g flutriafol active ingredient per 100 kg seed).
These treatments were compared with an untreated and a commercial standard treatment of Derosal Plus, which is a mixture of carbendazim plus thiram in a suspension concentrate formulation applied to seed at a rate of 200 ml formulation per 100 kg seed (30 g thiram plus 70 g carbendazim) per 100 kg seed. Both the untreated sample and the Derosal Plus treatment are provided below as comparative data.
(§1) Seed was drilled at 60 kg per hectare in four replicates per treatment. Each replicate consisted of a 6 m row of 100 seeds. With the seed treatments, fertilizer was first applied up to 2 cm below seed depth and then the rows opened to a depth of 3 cm, the seeds sown and the rows closed with soil. In each treatment there were five rows of 6 m length with 45 cm between rows. With the in-furrow treatments, the row was opened using a hoe, and then the appropriate weight amount of Impact 1.5 GR was applied in the row followed directly afterwards with seed placed over the granules. Soil was then placed over the seed to close the row.
(§2) Twenty two days after planting, the number of plants emerged was evaluated by counting the emerged seedlings in each of the central three rows of each plot. Disease assessment was done 61 days after emergence by selecting 20 leaves per plot from the whole plant at random, and estimating the percentage rust coverage (% disease severity).

[2] = system: soybean; test: Example 2: field trial, count of emerged seedlings (crop safety); conditions: in vivo
Text: as §1, §2

[3] = system: Asian Rust in Soy Beans; test: Example 3: greenhouse experiment, flutriafol seed or soil dressing, plants inoculated with rust spores at third trifoliate; type: in vivo, Phakopsora pachyrhizi; set-up: average recorded incidence of disease on the third trifoliate: unit not given here
Procedure: (§3) Soya seed was treated with a range of flutriafol rates, as presented in Table 3 below (right-hand side). Additionally, flutriafol was applied directly to the soil, at the rates described below (left-hand side). Three replicates where made per treatment. At the third trifoliate stage, seedlings where inoculated with rust spores on the ad- and ab-axial surfaces of the third trifoliate.
(§4) Following treatments and inoculations, the inoculated plants where transferred to a climate chamber, watered as necessary and evaluated for the incidence of Asian Rust. The average of the recorded incidence of disease on the third trifoliate is presented below.

[4] = system: Asian Rust (Phakopsora pachyrhizi) in Soy Beans; test: Example 1: climate chamber test, flutriafol seed or soil dressing, plants inoculated with rust spores at third trifoliate; type: in vivo
Procedure: as §3, with “Soy bean” for “Soya”, “1” for “3”, “were done” for “where made”
as §4, with “were” for “where”, “disease (%)” for “disease”, “below. An untreated control is also provided as comparative data.” for “below.”

## OC(Cn1cncn1)(c1ccc(F)cc1)c1ccccc1F (racemic) [flutriafol, (RS)-2,4′-difluoro-α-(1H-1,2,4-triazol-1-ylmethyl)benzhydryl alcohol]
[1]; all flutriafol seed treatment rates
  rust control (in words): reduction in rust
[1]; in-furrow, lowest rate of 60 g flutriafol/hectare, 61 days after plant emergence
  rust control (in words): controlled the rust
[1]; in-furrow, rates above 150 g flutriafol/hectare, 61 days after emergence
  rust control (in words): complete control
[2]
  effect on plant numbers (in words): unaffected
  phytotoxicity (in words): phytotoxic
[3]; in-furrow treatments using 30 grams flutriafol per hectare or more
  disease control (in words): Complete disease control
[3]; in-furrow treatments using just 3 grams flutriafol per hectare
  disease control (in words): Significant improvements in disease control
[3]; seed treatment 3 ppm, 21DPI
  average recorded incidence of disease on the third trifoliate: 31
[3]; seed treatment 10 ppm, 21DPI
  average recorded incidence of disease on the third trifoliate: 35
[3]; seed treatment 30 ppm, 21DPI
  average recorded incidence of disease on the third trifoliate: 40
[3]; seed treatment 100 ppm, 21DPI
  average recorded incidence of disease on the third trifoliate: 0
[3]; seed treatment 300 ppm, 21DPI
  average recorded incidence of disease on the third trifoliate: 0
[3]; seed treatment 1000 ppm, 21DPI
  average recorded incidence of disease on the third trifoliate: 0
[3]; seed treatments using 100 ppm flutriafol or more
  disease control (in words): Complete disease control
[3]; soil treatment 3 g ai/Ha, 28DPI
  average recorded incidence of disease on the third trifoliate: 18
[3]; soil treatment 10 g ai/Ha, 28DPI
  average recorded incidence of disease on the third trifoliate: 16
[3]; soil treatment 30 g ai/Ha, 28DPI
  average recorded incidence of disease on the third trifoliate: 0
[3]; soil treatment 100 g ai/Ha, 28DPI
  average recorded incidence of disease on the third trifoliate: 0
[3]; soil treatment 300 g ai/Ha, 28DPI
  average recorded incidence of disease on the third trifoliate: 0
[3]; soil treatment 1000 g ai/Ha, 28DPI
  average recorded incidence of disease on the third trifoliate: 0
[4]; in-furrow treatments using 30 grams or more flutriafol per hectare
  disease control (in words): Significant improvements
[4]; seed treatment 3 ppm
  average recorded incidence of disease (%) on the third trifoliate: 47%
[4]; seed treatment 10 ppm
  average recorded incidence of disease (%) on the third trifoliate: 28%
[4]; seed treatment 30 ppm
  average recorded incidence of disease (%) on the third trifoliate: 8%
[4]; seed treatment 100 ppm
  average recorded incidence of disease (%) on the third trifoliate: 1%
[4]; seed treatment 300 ppm
  average recorded incidence of disease (%) on the third trifoliate: 0%
[4]; seed treatment 1000 ppm
  average recorded incidence of disease (%) on the third trifoliate: 0%
[4]; seed treatments using 10 ppm flutriafol or more
  disease control (in words): Significant improvements
[4]; soil application 3 g ai/Ha
  average recorded incidence of disease (%) on the third trifoliate: 73%
[4]; soil application 10 g ai/Ha
  average recorded incidence of disease (%) on the third trifoliate: 63%
[4]; soil application 30 g ai/Ha
  average recorded incidence of disease (%) on the third trifoliate: 53%
[4]; soil application 100 g ai/Ha
  average recorded incidence of disease (%) on the third trifoliate: 12%
[4]; soil application 300 g ai/Ha
  average recorded incidence of disease (%) on the third trifoliate: 2%
[4]; soil application 1000 g ai/Ha
  average recorded incidence of disease (%) on the third trifoliate: 1%
